# Measured values: PMC4413647, “Simultaneous targeting of androgen receptor (AR) and MAPK-interacting kinases (MNKs) by novel retinamides inhibits growth of human prostate cancer cell lines” (Oncotarget, 2014)
# Assays:
# Type in all cases: cell-based, human
# PC-3 cells = assay: Wound healing migration assay; settings: 5 μM, 24 h
# Description: Figure 5 Anti-migratory and anti-invasive potential of NRs (A) Effect of NRs treatment (5 μmol/L) on PC-3 cell migration was assessed by wound healing assay after 24 h of wound formation. Representative photomicrographs of initial and final wounds are shown at 100x magnification. (B) Effect of NRs on PC-3 cell invasion was evaluated by transwell migration assay. PC-3 cells were seeded on matrigel coated boyden chamber and treated with NRs (5 μmol/L, 24 h). Photographs represent the extent of cell invasion in each of the treated cells. (C) Western blot analysis of the effect of NRs on the expression of cadherins in PC-3 cells. Cells were treated with indicated compound 20 μmol/L for 24 h. […] For wound healing assay highly metastatic PC-3 cells were plated in a 24 well plate at a seeding density of 5 × 10^5 cells/ well and allowed to form a confluent monolayer for 24 h. Cells were made dormant by pretreating with 0.5 μmol/L mitomycin C for 2 h to ensure that wounds are filled due to cell migration and not by cell proliferation. Subsequently, the monolayer was scratched with a pipette tip, washed with media to remove floating cells, and photographed (time 0 h). Cells were then treated with indicated compounds (5 μM) and the experiment was terminated as soon as wound was completely filled in vehicle treated controls. Cells were then photographed again using Nikon TE2000 microscope at three randomly selected sites per well [43].
# LNCaP cells = assay: MTT cell viability of LNCaP cells with AR/MNK1 siRNA and VNLG-152; settings: untransfected cells, 5 μM, 72 h
# Description: To confirm whether the observed anti-cancer effects of VNLG-152 on PCa cells was primarily due to its inhibitory effects on AR and MNK, we investigated the impact of AR and/or MNK siRNA on the survival of LNCaP cells by MTT assay. […] Co-transfection of LNCaP cells with both AR and MNK1 siRNA (compare lanes 1 and 4) further augmented loss of viability in LNCaP cells.
# Figure 6 Effect of siAR, siMNK1 on LNCaP cell viability, and VNLG-152 on key and downstream proteins in LNCaP cells (A) Western blot analysis of the expression of fAR, MNK1 and peIF4E in LNCaP cells transfected with 100 nM of siAR, siMNK1 and combinations for 18 h. (B) Effect of VNLG-152 (5 μmol) on cell proliferation in LNCaP cells transfected with siAR, siMNK1 and combinations as determined by MTT assay. The results represent the mean ± SEM of three independent experiments and are represented as a bar graph after normalizing to control cells. *, P< 0.05; ♣, P<0.01 compared with vehicle treated control. (C) Dose-dependent effect of VNLG-152 on the expression of AR, MNKs, peIF4E and downstream target proteins. Total cell lysate from LNCaP cells treated with VNLG-152 (0 - 20 μmol/L) for 24 h were separated by SDS-PAGE and probed with corresponding antibodies. Vehicle treated cells were included as control and all blots were reprobed for β-actin to ensure equal protein loading. […]
# Bax, cleaved PARP-1 = assay: Western blot of Bax and cleaved PARP-1 in PCa cells; settings: 20 μM, 24 h, among the lead NRs
# Description: Figure 4 Effect of NRs on cell cycle and apoptosis (A) LNCaP cells treated with 5 μM of NRs and other compounds for 24 h were stained with PI and analysed with a FACS calibur flow cytometer. (B) Total cell lysates from PCa cells treated with 20 μM of NRs were separated by SDS-PAGE and probed with cyclin D1 and B antibodies. […] (C) LNCaP cells were treated with indicated compounds (5 μmol/L) for 24 h and apoptosis induction was examined by oligonucleosomal fragmentation. Data are shown relative to vehicle treated control and the bars are means of three replicate determinations plus standard deviations. *, P< 0.01; ♣, P<0.05 compared with vehicle treated control. (D) PCa cells as indicated were seeded in 24 well plate, and treated with 5 μmol/L of NRs the subsequent day. After 24 h the plates were analyzed for apoptotic and viable cells using acridine orange/ethidium bromide staining. (E) Western blot analysis of apoptosis associated Bax and cPARP in PCa cells treated with NRs (20 μmol/L) for 24 h. (F) Apoptosis induction in LNCaP cells treated with 5 μmol/L of VNLG-147 and -152 in the presence or absence of ZVAD (5 μmol/L) was assessed by oligonucleosomal fragmentation after 24 h incubation. *, P< 0.05 compared with vehicle treated control. […]
compound,measurement,setting,value
CC1=C(/C=C/C(C)=C/C=C/C(C)=C/C(=O)Nc2ccc(F)cc2)C(C)(C)CCC1n1ccnc1 (racemic) [VNLG-152],PC-3 cell migration to the denuded zone,PC-3 cells,potentially suppressed
same,LNCaP cell viability,LNCaP cells,robust reduction
same,efficacy in inducing PARP cleavage and/or increasing Bax expression,"Bax, cleaved PARP-1",greater efficacies
